Test results published in article PMC8453901, “GLPG1205, a GPR84 Modulator: Safety, Pharmacokinetics, and Pharmacodynamics in Healthy Subjects” (Clinical Pharmacology in Drug Development, 2021).

Experiments:
[1] = Study 2 part 2: pharmacokinetics with 250-mg loading dose then 50 mg once daily; type: in vivo, human
Experimental: During study 2, GLPG1205 50 mg or matching placebo was administered as capsules in the morning 30 minutes after the start of a standard breakfast. Subjects were kept in‐house from the evening of day –1 to ≈26 hours after the first dose (day 2), and from the evening of day 13 until day 15. Administration of the study drug was performed daily at the clinical pharmacology unit. Subjects returned for a follow‐up visit at day 35.
In part 1, 24 healthy male subjects were matched into 3 cohorts based on body weight: Cohort A comprised 8 subjects aged 65–74 years, inclusive; cohort B comprised 8 subjects aged ≥75 years (1:1 weight matched with cohort A subjects [± 5 kg]); and cohort C comprised 8 subjects aged 18 to 50 years, inclusive (1:1 weight matched with cohort A subjects [± 5 kg]). All cohorts received GLPG1205 50 mg once daily or matching placebo, in a 3:1 ratio, for 14 days. In the open‐label second part of study 2, 8 subjects (cohort D) aged 65 to 74 years, inclusive, were included to characterize the PK profile after a loading dose of GLPG1205 250 mg on day 1 followed by multiple doses of GLPG1205 50 mg once daily from day 2 to day 14.
In the SAD part of study 1, blood samples (2 mL) for PK assessments were obtained before dosing and at multiple time points on the day of study drug administration (before dosing and 0.5, 1, 2, 4, 6, 8, and 12 hours after dosing) and at 24, 48, and 72 hours after dosing. The predose sample for the next dose level was also used in PK analysis (168 hours after dosing). […] In the MAD part of study 1, blood samples (2 mL) were obtained on days 1, 2, 4, 5, 6, 8, 10, 12, 14, 15, 16, 17, and 18 and at follow‐up (approximately 7 to 10 days after the last dose). These PK blood samples were taken after dosing (1, 2, 4, 6, 8, 12, and 24 hours) on day 1; before dosing on days 4, 6, 8, and 10; and after dosing (1, 2, 4, 6, 8, 12, 24, 72, and 96 hours) on day 14. The following additional PK blood samples were also taken: cohort C, before dosing on day 5; and cohorts D and E, before dosing on day 12. Urine samples were obtained from fractions collected over 6‐ or 12‐hour periods after dosing on days –1, 1, 2, 13, 14, and 15; samples obtained on days –1 and 13 were for cytochrome P450 (CYP) induction analysis only. In study 2, blood samples (2 mL) were obtained on days 1, 2, 5, 7, 10, 14, 15, 17, and 20 and at follow‐up (approximately 21 days after end of study medication administration). Blood samples were taken before dosing and at 1, 2, 4, 6, 8, 12, and 24 hours after drug administration on days 1 and 14 and before dosing on other sampling days.
GLPG1205 plasma concentrations were determined using a validated liquid chromatography with tandem mass spectrometry method. After a protein precipitation with methanol, a chromatographic separation was performed on a Kinetex C18 column (50×3.0 mm, 2.6 μm; Phenomenex, Torrance, California) set at 40°C by using a Nexera high‐performance liquid chromatography (HPLC) system (Shimadzu, Kyoto, Japan) or an Infinity HPLC system (Agilent Technologies, Diegem, Belgium) in isocratic elution mode. A QTRAP6500, QTRAP4000, or API4000 mass spectrometer (AB Sciex, Nieuwerkerk aan den Ijssel, The Netherlands) equipped with a TurboIonSpray probe operated in the multiple reaction monitoring in positive mode was used for quantification. The calibration curves in plasma were linear over the range of 1 to 1000 ng/mL with 1/x^2 as weighting factor. The limit of quantification of the assay in the plasma samples was set at 1 ng/mL.
PK calculations were performed using Phoenix WinNonlin 6.2 (Pharsight Corporation, Palo Alto, California). […] AUC0‐inf was calculated from the area under the plasma concentration‐time curve from time 0 until the time corresponding with the last observed quantifiable concentration + Ct/λz, where Ct was the last observed quantifiable concentration and λz the first‐order terminal rate constant. […]

[2] = Safety across both studies and all dose groups; type: in vivo, human; conditions: both studies
Experimental: Safety and tolerability were assessed on the basis of adverse events (AEs), which were monitored throughout both studies. Additional safety assessments included vital signs (including supine [and standing in study 2] heart rate, systolic and diastolic blood pressure, and oral body temperature), 12‐lead electrocardiogram (ECG), clinical laboratory tests (hematology, coagulation [study 2 only], serum/plasma chemistry, urinalysis, urine drug screen, serology, and alcohol breath test), and a comprehensive physical examination. In the SAD part of study 1, clinical laboratory tests, physical examination, and vital signs were assessed at the screening visit, at the time of dosing (0 hours after dose), 24 hours after dosing and at follow‐up (7 to 10 days after the final dose). Vital signs were additionally observed 2 hours after dosing, and the 12‐lead ECG was additionally completed at 1, 2, 6, 8, and 12 hours after dosing. In the MAD part of study 1, all additional safety assessments were performed at screening; days 1, 2, 8, 14, and 15; and at follow‐up. In study 2, additional safety assessments were performed at screening (between 21 and 2 days before the first study drug administration); days 1, 2, 5, 10, 14, 15, and 20 (clinical laboratory tests were not performed on day 20); at early discontinuation; and at follow‐up. For study 2, renal function tests (measurement of estimated creatinine clearance rate using the Cockcroft‐Gault equation) were also included in the clinical laboratory tests for safety assessment.
In both studies, the safety analysis was descriptive and focused on changes from baseline and treatment‐emergent findings.

[3] = set-up: method as in PMID 32902984; conditions: mouse, rat, and dog; cited from earlier work
[4] = set-up: method as in PMID 32902984; conditions: rats, up to 100 mg/kg/d; cited from earlier work
CYP2C9 = tested on: CYP2C9; set-up: method as in data on file at Galapagos; conditions: in vitro; ref data on file at Galapagos; cited from earlier work
CYP1A2 = tested on: CYP1A2; set-up: method as in data on file at Galapagos; conditions: in vitro; ref data on file at Galapagos; cited from earlier work

## O=c1nc(OC[C@@H]2COCCO2)cc2n1CCc1cc(C#CC3CC3)ccc1-2 [GLPG1205, 9‐cyclopropylethynyl‐2‐((S)‐1‐[1,4]dioxan‐2‐ylmethoxy)‐6,7‐dihydropyrimido[6,1‐a]isoquinolin‐4‐one]
[1]; 250-mg loading dose + 13 days 50 mg once daily vs 14 days 50 mg once daily
  steady-state exposure with loading dose vs cohort A without: no difference in steady‐state exposure
[1]; 144 hours after the last dose on day 14, all subjects
  quantifiability in plasma after last dose: quantifiable in plasma up to day 20
[1]; after 250-mg loading dose on day 1
  time of maximal mean GLPG1205 concentration: 12 hours after dosing
[1]; after the loading dose of 250 mg
  day by which steady state in plasma concentration was reached: ≤ 2 days
[1]; cohort D 65-74 y, 250-mg loading dose then 50 mg once daily, day 14, mean (CV%)
  Rac: 1.35 (22.8)
[1]; day 14, ratio of cohort D relative to cohort A expressed as a percentage
  Rac point estimate (CI), cohort D vs cohort A: <.0001 22.11 (18.46‐26.48)
[1]; follow-up visit day 35, 504 hours after the last dose
  subjects with GLPG1205 below the limit of quantification: 5 of 8
[1]; human, plasma, oral, cohort D 65-74 y, 250-mg loading dose then 50 mg once daily, day 14, mean (CV%)
  Cmax: 2630 ng/mL
[1]; human, plasma, oral, cohort D 65-74 y, 250-mg loading dose then 50 mg once daily, day 14, mean (CV%), N = 6
  AUC(0-inf): 250 µg·h/mL
[1]; human, plasma, oral, cohort D 65-74 y, 250-mg loading dose then 50 mg once daily, day 14, mean (CV%), N = 7, read-out: t1/2,λz (converted)
  half-life: 55.4 h
[1]; human, plasma, oral, cohort D 65-74 y, 250-mg loading dose then 50 mg once daily, day 14, mean (CV%), read-out: AUC0–24h
  AUC(0-t): 53.7 µg·h/mL
[1]; human, plasma, oral, cohort D 65-74 y, 250-mg loading dose then 50 mg once daily, day 14, mean (CV%), read-out: C24h
  concentration at 24 h: 2360 ng/mL
[1]; human, plasma, oral, day 35, 504 hours after the last dose, subjects in whom still quantifiable, read-out: plasma GLPG1205 level at follow-up
  concentration at 504 h: 2.01 to 21.6 ng/mL
[1]; single 250-mg loading dose
  time to reach steady-state exposure: 1 days
[2]
  ECG and vital signs: no clinically significant trends
  deaths or serious AEs: No deaths or serious AEs occurred
[2]; all GLPG1205 dose groups
  subjects with headache (TEAE): 17 subjects
  subjects with nausea (TEAE): 12 subjects
  subjects with treatment-emergent AEs: 44 subjects
[3]
  oral absolute exposure: ≥ 68%
[4]
  dose-proportionality of exposure: increased dose‐proportionally
CYP2C9
  inhibition of CYP2C9: weak inhibition
CYP1A2
  induction of CYP1A2: weak induction
